The values below come from US20080161395A1, “Derivatives of Aminobutanoic Acid Inhibiting Cpt” (SIGMA-TAU INDUSTRIE FARMACEUTICHE RIUNITE S.P.A., priority 2005, published 2008).

Assay [1] has as its target T1, CPT1 liver (Rattus norvegicus, UniProt P32198).
T1 construct: fresh mitochondrial preparations obtained from the liver or heart of Fischer rats; from tissue; host or cells: liver mitochondria of Fischer rats
T1 sequence (P32198 1-773): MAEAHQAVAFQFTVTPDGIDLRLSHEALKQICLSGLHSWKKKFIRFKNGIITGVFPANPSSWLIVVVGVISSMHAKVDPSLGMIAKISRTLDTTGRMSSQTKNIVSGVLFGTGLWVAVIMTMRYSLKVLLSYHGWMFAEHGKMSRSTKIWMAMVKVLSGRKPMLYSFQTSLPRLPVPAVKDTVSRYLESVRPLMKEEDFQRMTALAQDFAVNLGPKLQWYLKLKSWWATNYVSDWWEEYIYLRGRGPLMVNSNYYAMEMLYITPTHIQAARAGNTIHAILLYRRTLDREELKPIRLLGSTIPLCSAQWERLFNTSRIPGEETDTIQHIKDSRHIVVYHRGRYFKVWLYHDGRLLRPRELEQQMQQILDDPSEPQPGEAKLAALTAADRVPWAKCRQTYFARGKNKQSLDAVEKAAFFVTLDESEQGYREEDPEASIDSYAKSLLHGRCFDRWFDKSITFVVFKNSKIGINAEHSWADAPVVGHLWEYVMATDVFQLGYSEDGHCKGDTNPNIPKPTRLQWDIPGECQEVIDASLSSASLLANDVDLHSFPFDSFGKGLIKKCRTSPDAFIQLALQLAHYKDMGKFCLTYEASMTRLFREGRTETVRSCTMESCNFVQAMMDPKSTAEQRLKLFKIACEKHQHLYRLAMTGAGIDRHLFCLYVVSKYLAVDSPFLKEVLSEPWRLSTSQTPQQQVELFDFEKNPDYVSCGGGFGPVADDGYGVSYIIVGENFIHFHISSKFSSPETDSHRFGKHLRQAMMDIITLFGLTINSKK
Briefly: Inhibition of CPT in fresh rat liver mitochondrial preparations. Format: biochemical, Fischer rats. To be noted: rat liver mitochondria, 50 μM [14C]palmitoyl-CoA, 10 mM L-carnitine, 37° C., 1 minute. On the procedure:
100 μl of a mitochondrial suspension, containing 50 μM of [^14C] palmitoyl-CoA (spec.act. 10000 dpm/mole) and 10 mM of L-carnitine, are incubated at 37° C. in the presence of stepped concentrations (0-3 mM) of product under examination.
(§1) The IC50 is then determined.

Assay [2] addresses T2, CPT1 heart (Rattus norvegicus, UniProt Q63704).
T2 construct: fresh mitochondrial preparations obtained from the liver or heart of Fischer rats; from tissue; host or cells: heart mitochondria of Fischer rats
T2 sequence (Q63704 1-772): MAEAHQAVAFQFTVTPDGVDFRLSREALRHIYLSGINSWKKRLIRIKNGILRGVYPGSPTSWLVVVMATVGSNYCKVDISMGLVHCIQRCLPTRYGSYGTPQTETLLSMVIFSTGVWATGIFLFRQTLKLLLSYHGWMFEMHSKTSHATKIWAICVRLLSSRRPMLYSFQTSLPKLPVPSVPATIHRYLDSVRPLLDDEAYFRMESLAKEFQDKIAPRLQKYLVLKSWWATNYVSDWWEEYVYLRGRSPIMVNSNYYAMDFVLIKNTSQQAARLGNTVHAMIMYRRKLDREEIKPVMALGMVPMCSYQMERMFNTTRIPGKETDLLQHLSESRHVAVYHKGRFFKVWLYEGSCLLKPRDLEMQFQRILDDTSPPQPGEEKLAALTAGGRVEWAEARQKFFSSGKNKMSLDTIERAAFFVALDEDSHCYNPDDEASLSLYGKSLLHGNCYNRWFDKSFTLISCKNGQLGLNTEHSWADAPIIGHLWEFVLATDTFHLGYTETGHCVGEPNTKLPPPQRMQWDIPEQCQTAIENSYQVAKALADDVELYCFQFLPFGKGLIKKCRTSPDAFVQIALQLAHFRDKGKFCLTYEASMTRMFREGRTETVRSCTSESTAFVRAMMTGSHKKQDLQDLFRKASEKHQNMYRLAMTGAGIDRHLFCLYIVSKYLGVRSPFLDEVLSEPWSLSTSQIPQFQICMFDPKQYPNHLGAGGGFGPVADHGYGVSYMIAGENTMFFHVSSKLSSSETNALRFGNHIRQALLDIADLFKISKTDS
As to the kind of experiment: Inhibition of CPT in fresh rat heart mitochondrial preparations. The class given is biochemical, Fischer rats. To be noted: rat heart mitochondria, 50 μM [14C]palmitoyl-CoA, 10 mM L-carnitine, 37° C., 1 minute. On the procedure: The inhibition of CPT was evaluated on fresh mitochondrial preparations obtained from the liver or heart of Fischer rats, fed normally; the mitochondria taken from the liver or heart are suspended in a 75 mM sucrose buffer, EGTA 1 mM, pH 7.5. 100 μl of a mitochondrial suspension, containing 50 μM of [^14C] palmitoyl-CoA (spec.act. 10000 dpm/mole) and 10 mM of L-carnitine, are incubated at 37° C. in the presence of stepped concentrations (0-3 mM) of product under examination.
as §1

Assay [3] deals with CPT-1 in the hypothalamus. Particulars: intracerebroventricular (icv) administration; Nature Medicine, 2003, 9(6), 756-761; cited from earlier work.

In general, IC50 refers to the concentration at which inhibition is half-maximal. A higher IC50 goes with lower potency. In the case of `CCCCCCCCCCCCCCNC(=O)N[C@H](CC(=O)O)CN(C)C` [ST2837, (R)-4-(dimethylamino)-3-(tetradecylcarbamoyl)-amino-butyric Acid], the IC50 was determined as 5.7 µM in assay [1] and 70 µM in assay [2].
As for `CCCCCCCCCCCCCCNC(=O)N[C@H](CC(=O)[O-])C[N+](C)(C)C` [ST1326, R-4-trimethyl ammonium-3-(tetradecylcarbamoyl)-aminobutyrate], the half-inhibitory concentration (IC50) in assay [1] came out at 0.36 µM; in assay [2], 48.8 µM. In addition, the “food intake and gluconeogenesis” value in assay [3] was “significantly and consistently reducing”.
